Experimental data published in patent publication US20250171431A1, “HETEROCYCLIC INHIBITORS OF IGF-1R FOR TREATMENT OF DISEASE” (HORIZON THERAPEUTICS IRELAND DAC, priority 2023, published 2025).

Target: IGF-1R (Homo sapiens (Human), UniProt P08069)
Assay: Example B-1: IGF-1R Assay (PC3 cells, IGF1 stimulation, AlphaLISA)
Assay type: cell-based
Details: 200 ng/mL IGF1 stimulation, read-out: Biological Activity against IGF-1R IC50
Protocol: 50K PC3 cells were seeded on day 1 in 50 μL of media in 96-well plate and incubated overnight at 37° C., 5% CO2. On day 2, all cells were expected to be at 80-90% confluency. Cells were starved for two hours by changing the media to 90 μL of EMEM serum-free media and incubated for 2 hours. Next, cells were treated with 10 μL of 10× concentrated and 3× serially diluted compounds for two hours. It makes 1× of compounds in 100 μL media. This was followed by stimulation of cells with 11×IGF1 for 30 min in 10 μL of serum-free EMEM media at the final concentration of 200 ng/mL.
The media was removed and replaced by 50 μL of 1× lysis buffer from the AlphaLISA kit (with 1× of cOmplete™ protease inhibitor). The plates were sealed, and cells were allowed to lyse for 10 min in the shaker before storing the plate at −20° C. until used. The AlphaLISA assay with processed cell lysates were performed as described in the protocol. Briefly, 10 μL of the undiluted sample were loaded to 384 well Optiplates and 5 μL of the acceptor mix (as described in the AlphaLISA kit) was added to each well. The plates were sealed and briefly vortexed followed by the incubation at RT for 3 hours. In the dark, 5 μL of donor mix was added to each well. All plates were sealed and stored at RT overnight. The plates were read in EnVision reader using standard AlphaLISA settings.
Compound activity was analyzed using CBIS data analysis suite (ChemInnovation, CA). Percentage inhibition was calculated using the following formula: % Inhibition=100%×(1−(mean RLU of test sample−mean RLU of vehicle control)/(mean RLU of EC80 control−mean RLU of vehicle control)). The activity for representative examples of the invention is shown in the following table, wherein A: IC50≤500 nM; B: 500 nM<IC50≤2 μM; C: 2 μM<IC50≤10 μM; D: IC50>10 μM.

Chain of IGF-1R (P08069 31-1367): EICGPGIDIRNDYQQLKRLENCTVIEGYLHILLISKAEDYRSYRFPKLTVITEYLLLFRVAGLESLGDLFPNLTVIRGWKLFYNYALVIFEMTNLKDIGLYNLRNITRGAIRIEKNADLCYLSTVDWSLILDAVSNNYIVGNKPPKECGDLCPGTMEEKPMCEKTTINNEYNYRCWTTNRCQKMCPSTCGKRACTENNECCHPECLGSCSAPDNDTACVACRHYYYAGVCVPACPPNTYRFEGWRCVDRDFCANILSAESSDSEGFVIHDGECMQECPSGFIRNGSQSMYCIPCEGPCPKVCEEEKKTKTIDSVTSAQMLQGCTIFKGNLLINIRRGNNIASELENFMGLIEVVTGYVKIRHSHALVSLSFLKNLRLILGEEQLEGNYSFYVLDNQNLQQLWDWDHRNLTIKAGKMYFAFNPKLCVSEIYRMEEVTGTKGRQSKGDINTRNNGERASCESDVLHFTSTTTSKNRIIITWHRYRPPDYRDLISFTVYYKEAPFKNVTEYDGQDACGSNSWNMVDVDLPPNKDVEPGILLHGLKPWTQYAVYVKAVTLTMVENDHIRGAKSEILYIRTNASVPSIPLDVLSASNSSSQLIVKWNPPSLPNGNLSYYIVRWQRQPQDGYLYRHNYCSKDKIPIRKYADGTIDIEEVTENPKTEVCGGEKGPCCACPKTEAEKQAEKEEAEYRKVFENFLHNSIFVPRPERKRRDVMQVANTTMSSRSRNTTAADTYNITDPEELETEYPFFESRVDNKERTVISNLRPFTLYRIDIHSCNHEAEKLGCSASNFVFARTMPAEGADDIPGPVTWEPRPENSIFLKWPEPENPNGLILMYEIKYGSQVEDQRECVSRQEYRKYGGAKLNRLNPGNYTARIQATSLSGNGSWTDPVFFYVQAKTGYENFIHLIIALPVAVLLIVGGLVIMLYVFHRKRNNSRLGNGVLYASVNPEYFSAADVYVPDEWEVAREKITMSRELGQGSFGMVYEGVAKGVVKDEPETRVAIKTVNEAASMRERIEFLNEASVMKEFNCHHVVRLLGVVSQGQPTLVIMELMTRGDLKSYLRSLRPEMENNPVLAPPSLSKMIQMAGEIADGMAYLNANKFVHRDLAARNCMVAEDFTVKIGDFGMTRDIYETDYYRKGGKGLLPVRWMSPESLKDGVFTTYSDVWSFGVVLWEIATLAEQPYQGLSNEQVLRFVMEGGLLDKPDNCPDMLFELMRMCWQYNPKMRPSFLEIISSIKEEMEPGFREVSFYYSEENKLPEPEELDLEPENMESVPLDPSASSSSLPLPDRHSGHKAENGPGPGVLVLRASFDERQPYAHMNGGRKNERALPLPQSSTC

COc1cc(Nc2nccc(Nc3cnc4c(c3)C3CCC(C4)C3)n2)ccc1OCCCN1CCCCC1 (stereo not drawn) [Compound 70, 4-{6-azatricyclo[7.2.1.0^2,7]dodeca-2(7),3,5-trien-4-ylamino}-2-[3-methoxy-4-(3-piperidinopropoxy)phenylamino] pyrimidine]
IC50: ≤ 500 nM

COc1cc(Nc2nccc(Nc3cc4cccc(F)c4[nH]c3=O)n2)cnc1N1CCN(C)CC1 [Compound 197, 8-fluoro-3-{2-[5-methoxy-6-(4-methyl-1-piperazinyl)-3-pyridylamino]-4-pyrimidinylamino}-1,2-dihydro-2-quinolinone]
IC50: ≤ 500 nM

COc1cc(Nc2nccc(Nc3cnc4c(c3)CCCO4)n2)ccc1O[C@H]1C[C@@H](N(C)C)C1 [Compound 365, 4-(3,4-dihydro-2H-1-oxa-8-azanaphth-6-ylamino)-2-{3-methoxy-4-[(1s,3s)-3-(dimethylamino)cyclobutoxy]phenylamino}pyrimidine]
IC50: ≤ 500 nM

COc1cc(Nc2nccc(Nc3cnc4cncc(F)c4c3)n2)ccc1O[C@H]1C[C@@H](N(C)C)C1 [Compound 274, 4-(5-fluoro-1,7-diaza-3-naphthylamino)-2-{3-methoxy-4-[(1s,3s)-3-(dimethylamino)cyclobutoxy]phenylamino}pyrimidine]
IC50: 2000 to 10000 nM

CN(C)[C@H]1C[C@H](Oc2ccc(Nc3nccc(Nc4cnc5ccc(Br)cc5c4)n3)cc2)C1 [Compound 320, 4-(6-bromo-3-quinolylamino)-2-{p-[(1r,3r)-3-(dimethylamino)cyclobutoxy]phenylamino}pyrimidine]
IC50: ≤ 500 nM

COc1cc(Nc2nccc(Nc3cnc4cc(F)c(F)cc4c3)n2)cnc1N1CCN(C)C(C(F)(F)F)C1 (stereo not drawn) [Compound 475, 4-(6,7-difluoro-3-quinolylamino)-2-{5-methoxy-6-[4-methyl-3-(trifluoromethyl)-1-piperazinyl]-3-pyridylamino}pyrimidine]
IC50: 500 to 2000 nM

COc1cc(Nc2nccc(Nc3cnc4c(c3)COC(C)(C)C4)n2)ccc1OCCCN1CCCCC1 [Compound 385, 4-(7,7-dimethyl-7,8-dihydro-5H-6-oxa-1-azanaphth-3-ylamino)-2-[3-methoxy-4-(3-piperidinopropoxy)phenylamino]pyrimidine]
IC50: 500 to 2000 nM

Oc1ccc2cc(Nc3ccnc(Nc4ccc(OCCCN5CCOCC5)cc4)n3)cnc2c1 [Compound 408, 3-{2-[p-(3-morpholinopropoxy)phenylamino]-4-pyrimidinylamino}-7-quinolinol]
IC50: ≤ 500 nM

COc1cc(Nc2nccc(Nc3cnc4c(c3)O[C@H]3CCC[C@@H]3O4)n2)ccc1O[C@H]1C[C@@H](N(C)C)C1 [Compound 192, 4-{(3S,7S)-2,8-dioxa-10-azatricyclo[7.4.0.03,7]trideca-1(13),9,11-trien-12-ylamino}-2-{3-methoxy-4-[(1s,3R)-3-(dimethylamino)cyclobutoxy]phenylamino}pyrimidine]
IC50: ≤ 500 nM

COc1cc(Nc2nccc(Nc3cc4ccccc4nc3OC)n2)ccc1OCCCN1CCCCC1 [Compound 108, 2-[3-methoxy-4-(3-piperidinopropoxy)phenylamino]-4-(2-methoxy-3-quinolylamino)pyrimidine]
IC50: ≤ 500 nM

COc1cc(Nc2nccc(Nc3cnc4ccc(Cl)cc4c3)n2)ccc1O[C@H]1CC[C@@H](N(C)C)CC1 [Compound 286, 4-(6-chloro-3-quinolylamino)-2-{3-methoxy-4-[(1s,4s)-4-(dimethylamino)cyclohexyloxy]phenylamino}pyrimidine]
IC50: ≤ 500 nM

COc1cc(Nc2nccc(Nc3cnc4cc(C5CC5)ccc4c3)n2)ccc1OCCCN1CCCCC1 [Compound 107, 4-(7-cyclopropyl-3-quinolylamino)-2-[3-methoxy-4-(3-piperidinopropoxy)phenylamino]pyrimidine]
IC50: ≤ 500 nM

COc1cc(Nc2nccc(Nc3ccc4c(OC)cccc4c3)n2)ccc1OCCCN1CCCCC1 [Compound 453, 4-(5-methoxy-2-naphthylamino)-2-[3-methoxy-4-(3-piperidinopropoxy)phenylamino] pyrimidine]
IC50: ≤ 500 nM

COc1cc(Nc2nccc(Nc3cnc4ccc(C(F)(F)F)cc4c3)n2)ccc1OCCCN1CCOCC1 [Compound 419, 2-[3-methoxy-4-(3-morpholinopropoxy)phenylamino]-4-[6-(trifluoromethyl)-3-quinolylamino]pyrimidine]
IC50: ≤ 500 nM

COc1cc(Nc2nccc(Nc3cnc4[nH]ncc4c3)n2)ccc1O[C@H]1C[C@@H](N(C)C)C1 [Compound 300, 2-{3-methoxy-4-[(1s,3s)-3-(dimethylamino)cyclobutoxy]phenylamino}-4-(1H-1,2,7-triazainden-5-ylamino)pyrimidine]
IC50: 500 to 2000 nM

CN(C)[C@H]1C[C@H](Oc2ccc(Nc3nccc(Nc4cnc5c(c4)SCCC5)n3)cc2)C1 [Compound 318, 4-(3,4-dihydro-2H-1-thia-5-azanaphth-7-ylamino)-2-{p-[(1r,3r)-3-(dimethylamino)cyclobutoxy]phenylamino}pyrimidine]
IC50: ≤ 500 nM

CN(C)[C@H]1C[C@H](Oc2ccc(Nc3nccc(Nc4cc5ccccc5[nH]c4=O)n3)cc2)C1 [Compound 248, 3-(2-{p-[(1r,3r)-3-(dimethylamino)cyclobutoxy]phenylamino}-4-pyrimidinyl-amino)-2(1H)-quinolinone]
IC50: ≤ 500 nM

COc1cc(Nc2nccc(Nc3cnc4c(F)c(F)ccc4c3)n2)ccc1O[C@H]1C[C@H](N(C)C)C1 [Compound 323, 4-(7,8-difluoro-3-quinolylamino)-2-{3-methoxy-4-[(1r,3r)-3-(dimethylamino)cyclobutoxy]phenylamino}pyrimidine]
IC50: ≤ 500 nM

COc1cc(Nc2nccc(Nc3cnc4c(C(F)(F)F)cccc4c3)n2)ccc1OCCCN1CCCCC1 [Compound 5, 2-[3-methoxy-4-(3-piperidinopropoxy)phenylamino]-4-[8-(trifluoromethyl)-3-quinolylamino]pyrimidine]
IC50: ≤ 500 nM

COc1cc(Nc2nccc(Nc3cc4ccccc4nc3C)n2)ccc1OCCCN1CCCCC1 [Compound 424, 2-[3-methoxy-4-(3-piperidinopropoxy)phenylamino]-4-(2-methyl-3-quinolylamino)pyrimidine]
IC50: 500 to 2000 nM

COc1ccc2cc(Nc3ccnc(Nc4ccc(OCCCN5CCCCC5)c(OC)c4)n3)cnc2c1 [Compound 426, 2-[3-methoxy-4-(3-piperidinopropoxy)phenylamino]-4-(7-methoxy-3-quinolylamino)pyrimidine]
IC50: ≤ 500 nM

c1cc(Nc2cnc3c(c2)CC2(CC3)OCCO2)nc(Nc2ccc(OCCCN3CCOCC3)cc2)n1 [Compound 68, 4-(7′,8′-dihydro-5′H-spiro[1,3-dioxolane-2,6′-quinolin]-3′-ylamino)-2-[p-(3-morpholinopropoxy)phenylamino] pyrimidine]
IC50: ≤ 500 nM

COc1cc(Nc2nccc(Nc3cnc4[nH]cc(Br)c4c3)n2)ccc1O[C@H]1C[C@@H](N(C)C)C1 [Compound 203, 4-(3-bromo-1H-1,7-diazainden-5-ylamino)-2-{3-methoxy-4-[(1s,3s)-3-(dimethylamino)cyclobutoxy]phenylamino}pyrimidine]
IC50: ≤ 500 nM

COc1cc(Nc2nccc(Nc3cnc4ccc(Cl)cc4c3)n2)cnc1O[C@H]1C[C@@H](N(C)C)C1 [Compound 131, N4-(6-chloroquinolin-3-yl)-N2-(6-((1s,3s)-3-(dimethylamino)cyclobutoxy)-5-methoxypyridin-3-yl)pyrimidine-2,4-diamine]
IC50: ≤ 500 nM
